28 molecules from patent US11524966B1 (Valo Early Discovery, Inc., priority 2017, dated 2022) can be followed below.

Structures are written as SMILES.

The assay concerns the target T1, USP28 (USP28-5(1-1077)-TEV-6*His; LifeSensors) (Homo sapiens, UniProt Q96RU2).
T1 construct: construct USP28 (USP28-5(1-1077)-TEV-6*His; LifeSensors); TEV cleavage site (C); 6xHis (C); purchased LifeSensors
T1 sequence (Q96RU2 1-1077): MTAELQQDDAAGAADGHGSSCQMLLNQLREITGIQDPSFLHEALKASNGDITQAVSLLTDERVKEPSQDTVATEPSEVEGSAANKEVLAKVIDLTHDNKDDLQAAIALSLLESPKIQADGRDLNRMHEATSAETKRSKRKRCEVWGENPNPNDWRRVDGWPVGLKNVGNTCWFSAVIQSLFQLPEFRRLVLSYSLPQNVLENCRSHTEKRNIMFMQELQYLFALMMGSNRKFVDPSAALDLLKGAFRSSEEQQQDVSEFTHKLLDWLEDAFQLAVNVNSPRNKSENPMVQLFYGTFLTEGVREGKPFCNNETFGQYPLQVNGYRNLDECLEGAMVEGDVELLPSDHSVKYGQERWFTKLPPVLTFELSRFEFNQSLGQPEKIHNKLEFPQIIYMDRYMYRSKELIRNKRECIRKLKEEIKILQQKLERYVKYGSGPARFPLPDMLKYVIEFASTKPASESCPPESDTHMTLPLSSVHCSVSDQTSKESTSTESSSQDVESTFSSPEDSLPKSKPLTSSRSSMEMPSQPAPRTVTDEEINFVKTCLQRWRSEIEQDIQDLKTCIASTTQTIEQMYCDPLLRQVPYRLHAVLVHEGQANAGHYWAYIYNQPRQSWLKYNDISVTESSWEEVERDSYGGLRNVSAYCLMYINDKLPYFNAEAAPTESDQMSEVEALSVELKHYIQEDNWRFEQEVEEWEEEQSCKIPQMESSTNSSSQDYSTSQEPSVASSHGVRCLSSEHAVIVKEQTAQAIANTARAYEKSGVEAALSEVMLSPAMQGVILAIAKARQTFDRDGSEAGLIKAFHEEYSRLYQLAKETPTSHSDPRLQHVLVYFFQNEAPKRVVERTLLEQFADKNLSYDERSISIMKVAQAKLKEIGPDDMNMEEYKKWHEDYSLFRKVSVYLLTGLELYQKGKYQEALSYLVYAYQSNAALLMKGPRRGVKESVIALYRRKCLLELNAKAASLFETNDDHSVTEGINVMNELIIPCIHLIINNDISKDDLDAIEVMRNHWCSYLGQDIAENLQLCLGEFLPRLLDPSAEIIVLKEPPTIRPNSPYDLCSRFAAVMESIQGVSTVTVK
Put plainly: Ubiquitin-Rhodamine 110 Assay for USP28 Activity, Example A-1(b). The format is biochemical. The following applies: Ub-Rh110 assay, Example A-1(b). Summed up: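 Single-point screening used 10 μM compound with 90 min room-temperature incubation; follow-up dose-responses (25 μM top, 3-fold) used 75 pM USP28 1-1077 construct, 30 min compound preincubation, 25 nM Ub-Rh110, 20 min reaction, citric acid quench. Rh110 fluorescence normalised to no-enzyme and DMSO controls; IC50 from 4-parameter logistic fit.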

As to `Cc1ccc2c(N)c(C(=O)N[C@H]3COc4cc(N5CC6CC(C5)N6)cc(F)c4C3)sc2n1` (single isomer, unassigned) [Example 1-42], the “USP28 A-1(b) IC50 range” value is listed as “+ (>2 μM)”. For `Cc1cnc2c(N)c(C(=O)N[C@H]3CCc4cc(N5CCNCC5)c(C)cc4C3)sc2n1` (single isomer, unassigned) [Example 2-34], the “USP28 A-1(b) IC50 range” value is “++ (0.2-2 μM)”. The same measure for `Cc1cnc2c(N)c(C(=O)N[C@@H]3CCc4cc(N5CCNCC5)c(C)cc4C3)sc2n1` (single isomer, unassigned) [Example 2-35]: “+ (>2 μM)”. In the case of `Cc1cnc2c(N)c(C(=O)N[C@H]3CCc4c(ccc(N5CCNCC5)c4C)C3)sc2n1` (single isomer, unassigned) [Example 2-36], the “USP28 A-1(b) IC50 range” value is “+ (>2 μM)”. As to `Cc1cnc2c(N)c(C(=O)N[C@@H]3CCc4c(ccc(N5CCNCC5)c4C)C3)sc2n1` (single isomer, unassigned) [Example 2-37], the “USP28 A-1(b) IC50 range” value is given as “+++ (0.05-0.2 μM)”.

For the molecule `Cc1ccc2c(N)c(C(=O)N[C@H]3COc4cc(N5CCC[C@@](N)(C(F)(F)F)C5)ccc4C3)sc2n1` (single isomer, unassigned) [Example 3-3], the “USP28 A-1(b) IC50 range” value is “++++ (0.001-0.05 μM)”. The same measure for `Cc1ccc2c(N)c(C(=O)N[C@H]3COc4cc(N5CCC[C@](N)(C(F)(F)F)C5)ccc4C3)sc2n1` (single isomer, unassigned) [Example 3-4]: “+++ (0.05-0.2 μM)”; for `Cc1nc2sc(C(=O)N[C@H]3COc4cc(N5CC6CCC(C5)N6)ccc4C3)c(N)c2s1` [Example 1-23, N-((3R)-7-(3,8-diazabicyclo[3.2.1]octan-3-yl)chroman-3-yl)-6-amino-2-methylthieno[2,3-d]thiazole-5-carboxamide]: “++ (0.2-2 μM)”; for `Cc1nc2sc(C(=O)N[C@@H]3COc4cc(N5CC6CCC(C5)N6)ccc4C3)c(N)c2s1` [Example 1-24, N-((3S)-7-(3,8-diazabicyclo[3.2.1]octan-3-yl)chroman-3-yl)-6-amino-2-methylthieno[2,3-d]thiazole-5-carboxamide]: “+ (>2 μM)”. For `Cc1nc2sc(C(=O)N[C@H]3COc4cc(N5CCNCC5)ccc4C3)c(N)c2s1` [Example 1-25, (R)-6-amino-2-methyl-N-(7-(piperazin-1-yl)chroman-3-yl)thieno[2,3-d]thiazole-5-carboxamide] the value was “++ (0.2-2 μM)”; for `Cc1nc2sc(C(=O)N[C@@H]3COc4cc(N5CCNCC5)ccc4C3)c(N)c2s1` [Example 1-26, (S)-6-amino-2-methyl-N-(7-(piperazin-1-yl)chroman-3-yl)thieno[2,3-d]thiazole-5-carboxamide], “+ (>2 μM)”.

Regarding `Cc1ccc2c(N)c(C(=O)N[C@H]3COc4c(ccc(N5CCNCC5)c4F)C3)sc2n1` [Example 1-33, (R)-3-amino-N-(8-fluoro-7-(piperazin-1-yl)chroman-3-yl)-6-methylthieno[2,3-b]pyridine-2-carboxamide], the “USP28 A-1(b) IC50 range” value was “+++ (0.05-0.2 μM)”. For `Cc1ccc2c(N)c(C(=O)N[C@@H]3COc4c(ccc(N5CCNCC5)c4F)C3)sc2n1` [Example 1-34, (S)-3-amino-N-(8-fluoro-7-(piperazin-1-yl)chroman-3-yl)-6-methylthieno[2,3-b]pyridine-2-carboxamide] the value was “+ (>2 μM)”; for `Cc1ccc2c(N)c(C(=O)N[C@H]3COc4cc(N5CCNCC5)c(F)cc4C3)sc2n1` [Example 1-35, (R)-3-amino-N-(6-fluoro-7-(piperazin-1-yl)chroman-3-yl)-6-methylthieno[2,3-b]pyridine-2-carboxamide], “+++ (0.05-0.2 μM)”.

On to `Cc1ccc2c(N)c(C(=O)N[C@@H]3COc4cc(N5CCNCC5)c(F)cc4C3)sc2n1` [Example 1-36, (S)-3-amino-N-(6-fluoro-7-(piperazin-1-yl)chroman-3-yl)-6-methylthieno[2,3-b]pyridine-2-carboxamide], for which the “USP28 A-1(b) IC50 range” value is “+ (>2 μM)”.

`Cc1ccc2c(N)c(C(=O)N[C@H]3COc4cc(N5CC6CNCC(C5)C6(F)F)ccc4C3)sc2n1` [Example 2-1, 3-Amino-N-((3R)-7-(9,9-difluoro-3,7-diazabicyclo[3.3.1]nonan-3-yl)chroman-3-yl)-6-methylthieno[2,3-b]pyridine-2-carboxamide]: the “USP28 A-1(b) IC50 range” value is reported as “++++ (0.001-0.05 μM)”. The same measure for `Cc1ccc2c(N)c(C(=O)N[C@H]3COc4cc(N5CC6CC(C5)N6)ccc4C3)sc2n1` [Example 2-2, N-((3R)-7-(3,6-diazabicyclo[3.1.1]heptan-3-yl)chroman-3-yl)-3-amino-6-methylthieno[2,3-b]pyridine-2-carboxamide]: “+++ (0.05-0.2 μM)”; for `Cc1ccc2c(N)c(C(=O)N[C@@H]3COc4cc(N5CC6CC(C5)N6)ccc4C3)sc2n1` [Example 2-3, N-((3S)-7-(3,6-diazabicyclo[3.1.1]heptan-3-yl)chroman-3-yl)-3-amino-6-methylthieno[2,3-b]pyridine-2-carboxamide]: “+ (>2 μM)”; for `Cc1ccc2c(N)c(C(=O)N[C@H]3COc4cc(N5CCNC[C@@H]5C)ccc4C3)sc2n1` [Example 2-4, 3-amino-6-methyl-N-((R)-7-((S)-2-methylpiperazin-1-yl)chroman-3-yl)thieno[2,3-b]pyridine-2-carboxamide]: “++++ (0.001-0.05 μM)”. The same measure for `Cc1ccc2c(N)c(C(=O)N[C@H]3COc4cc(N5CCNC[C@H]5C)ccc4C3)sc2n1` [Example 2-5, 3-amino-6-methyl-N-((R)-7-((R)-2-methylpiperazin-1-yl)chroman-3-yl)thieno[2,3-b]pyridine-2-carboxamide]: “++++ (0.001-0.05 μM)”; for `Cc1ccc2c(N)c(C(=O)N[C@H]3COc4cc(N5C6CCC5CNC6)ccc4C3)sc2n1` [Example 2-6, N-((3R)-7-(3,8-diazabicyclo[3.2.1]octan-8-yl)chroman-3-yl)-3-amino-6-methylthieno[2,3-b]pyridine-2-carboxamide]: “+++ (0.05-0.2 μM)”; for `Cc1ccc2c(N)c(C(=O)N[C@H]3COc4cc(N5CCCC56CNC6)ccc4C3)sc2n1` [Example 2-7, (R)-N-(7-(2,5-diazaspiro[3.4]octan-5-yl)chroman-3-yl)-3-amino-6-methylthieno[2,3-b]pyridine-2-carboxamide]: “+++ (0.05-0.2 μM)”. For `Cc1ccc2c(N)c(C(=O)N[C@H]3COc4cc(N5CCN[C@@H](C)C5)ccc4C3)sc2n1` [Example 2-8, 3-amino-6-methyl-N-((R)-7-((S)-3-methylpiperazin-1-yl)chroman-3-yl)thieno[2,3-b]pyridine-2-carboxamide] the value was “++ (0.2-2 μM)”.

For `Cc1ccc2c(N)c(C(=O)N[C@H]3COc4cc(N5CCN[C@H](C)C5)ccc4C3)sc2n1` [Example 2-9, 3-amino-6-methyl-N-((R)-7-((R)-3-methylpiperazin-1-yl)chroman-3-yl)thieno[2,3-b]pyridine-2-carboxamide], the “USP28 A-1(b) IC50 range” value is reported as “++ (0.2-2 μM)”. Turning to `Cc1ccc2c(N)c(C(=O)N[C@H]3COc4cc(N5CCNCC56COC6)ccc4C3)sc2n1` [Example 2-10], the “USP28 A-1(b) IC50 range” value is listed as “+++ (0.05-0.2 μM)”. Take `Cc1cnc2c(N)c(C(=O)N[C@H]3COc4cc(N5CC6CC(C5)N6)ccc4C3)sc2n1` [Example 2-11, N-((3R)-7-(3,6-diazabicyclo[3.1.1]heptan-3-yl)chroman-3-yl)-7-amino-3-methylthieno[2,3-b]pyrazine-6-carboxamide]: the “USP28 A-1(b) IC50 range” value was “++ (0.2-2 μM)”.

On to `Cc1cnc2c(N)c(C(=O)N[C@H]3COc4cc(N5CC6COCC(C5)N6)ccc4C3)sc2n1` [Example 2-12, N-((3R)-7-(3-oxa-7,9-diazabicyclo[3.3.1]nonan-7-yl)chroman-3-yl)-7-amino-3-methylthieno[2,3-b]pyrazine-6-carboxamide], for which the “USP28 A-1(b) IC50 range” value is reported as “++ (0.2-2 μM)”.

As for `Cc1cnc2c(N)c(C(=O)N[C@H]3COc4cc(N5CC6CNCC(C5)O6)ccc4C3)sc2n1` [Example 2-13, N-((3R)-7-(9-oxa-3,7-diazabicyclo[3.3.1]nonan-3-yl)chroman-3-yl)-7-amino-3-methylthieno[2,3-b]pyrazine-6-carboxamide], the “USP28 A-1(b) IC50 range” value is reported as “++ (0.2-2 μM)”.
